Measurements reported in patent US5484717A, “Antibiotic 31F508α1, 31F508α2, 31F508β1, 31F508β2” (American Cyanamid Company, priority 1995, dated 1996).
Converted amounts (≈) assume the structure as drawn. Where two headings read alike, the source gives them in different places.

Legend:
B. cereus (Bacto) = test: In vitro antibacterial activity, agar dilution MIC; assay type: cell-based; conditions: Bacillus cereus, 18 h, read-out: Minimum Inhibitory Concentration
Experimental: (§1) The in vitro antibacterial activity of 31F508α1 and α2 is determined against a spectrum of gram-positive and gram-negative bacteria by a standard agar dilution method. Mueller-Hinton agar with and without 5% sheep blood and two-fold decreasing concentrations of either 31F508α1 or α2 are poured into petri dishes. The agar surfaces are inoculated with 1 to 5×10^4 colony forming units of bacteria by means of the Steers replicating device. The lowest concentration of antibiotic that inhibits growth of a bacterial strain after 18 hours incubation is recorded as the minimal inhibitory concentration for that strain. The results are given in Table V with sheeps blood added to the agar.

CNS (4615) = test: In vitro antibacterial activity, agar dilution MIC; assay type: cell-based; conditions: 18 h
Experimental: as §1

CNS (ID-3120) = test: In vitro antibacterial activity, agar dilution MIC; assay type: cell-based; conditions: 18 h
Experimental: as §1

CNS (ID-3276) = test: In vitro antibacterial activity, agar dilution MIC; assay type: cell-based; conditions: 18 h, read-out: Minimum Inhibitory Concentration, CNS (ID-3276), without sheep blood
Experimental: as §1

CNS (ID-3941) = test: In vitro antibacterial activity, agar dilution MIC; assay type: cell-based; conditions: 18 h
Experimental: as §1

E. Avium (ID-3953) = test: In vitro antibacterial activity, agar dilution MIC; assay type: cell-based; conditions: Enterococcus avium, 18 h, read-out: Minimum Inhibitory Concentration
Experimental: as §1

E. coli (ATCC 25922) = test: In vitro antibacterial activity, agar dilution MIC; assay type: cell-based; conditions: 18 hours
Experimental: as §1

E. coli (J2175) = test: In vitro antibacterial activity, agar dilution MIC; assay type: cell-based; conditions: Escherichia coli, 18 h, read-out: Minimum Inhibitory Concentration
Experimental: as §1

E. coli (J2445) = test: In vitro antibacterial activity, agar dilution MIC; assay type: cell-based; conditions: Escherichia coli, 18 h, read-out: Minimum Inhibitory Concentration
Experimental: as §1

E. faecalis (12201) = test: In vitro antibacterial activity, agar dilution MIC; assay type: cell-based; conditions: Enterococcus faecalis, 18 h, read-out: Minimum Inhibitory Concentration
Experimental: as §1

E. faecalis (ATCC 29212) = test: In vitro antibacterial activity, agar dilution MIC; assay type: cell-based; conditions: Enterococcus faecalis, ATCC29212, 18 h, read-out: Minimum Inhibitory Concentration
Experimental: as §1

E. faecalis (ID-1829) = test: In vitro antibacterial activity, agar dilution MIC; assay type: cell-based; conditions: Enterococcus faecalis, 18 h, read-out: Minimum Inhibitory Concentration
Experimental: as §1

E. faecalis (ID-2131) = test: In vitro antibacterial activity, agar dilution MIC; assay type: cell-based; conditions: Enterococcus faecalis, 18 h, read-out: Minimum Inhibitory Concentration
Experimental: as §1

E. faecalis (ID-4168) = test: In vitro antibacterial activity, agar dilution MIC; assay type: cell-based; conditions: Enterococcus faecalis, 18 h, read-out: Minimum Inhibitory Concentration
Experimental: as §1

E. faecium (12202) = test: In vitro antibacterial activity, agar dilution MIC; assay type: cell-based; conditions: Enterococcus faecium, 18 h, read-out: Minimum Inhibitory Concentration
Experimental: as §1

E. faecium (ID-3301) = test: In vitro antibacterial activity, agar dilution MIC; assay type: cell-based; conditions: Enterococcus faecium, 18 h, read-out: Minimum Inhibitory Concentration
Experimental: as §1

E. faecium (ID-4133) = test: In vitro antibacterial activity, agar dilution MIC; assay type: cell-based; conditions: 18 hours
Experimental: as §1

M. morganii (VGH 84-11) = test: In vitro antibacterial activity, agar dilution MIC; assay type: cell-based; conditions: Morganella morganii, 18 h, read-out: Minimum Inhibitory Concentration
Experimental: as §1

[1] = test system: P. aeruginosa (ATCC 27853); test: In vitro antibacterial activity, agar dilution MIC; assay type: cell-based; conditions: 18 hours
Experimental: as §1

S. Pyogenes (ID-3187) = test: In vitro antibacterial activity, agar dilution MIC; assay type: cell-based; conditions: Streptococcus pyogenes, 18 h, read-out: Minimum Inhibitory Concentration
Experimental: as §1

S. agalactiae (ID-4079) = test: In vitro antibacterial activity, agar dilution MIC; assay type: cell-based; conditions: Streptococcus agalactiae
Experimental: as §1

S. lutea (ATCC 9341) = test: In vitro antibacterial activity, agar dilution MIC; assay type: cell-based; conditions: 18 hours
Experimental: as §1

[2] = test system: Staphylococcus aureus (ATCC 29213); test: In vitro antibacterial activity, agar dilution MIC; assay type: cell-based; conditions: ATCC29213, 18 h, read-out: Minimum Inhibitory Concentration
Experimental: as §1

[3] = test system: Staphylococcus aureus (ID-2371); test: In vitro antibacterial activity, agar dilution MIC; assay type: cell-based; conditions: 18 h, read-out: Minimum Inhibitory Concentration
Experimental: as §1

[4] = test system: Staphylococcus aureus (ID-2727); test: In vitro antibacterial activity, agar dilution MIC; assay type: cell-based; conditions: 18 h, read-out: Minimum Inhibitory Concentration
Experimental: as §1

[5] = test system: Staphylococcus aureus (ID-3105); test: In vitro antibacterial activity, agar dilution MIC; assay type: cell-based; conditions: 18 h, read-out: Minimum Inhibitory Concentration
Experimental: as §1

[6] = test system: Staphylococcus aureus (ID-4379); test: In vitro antibacterial activity, agar dilution MIC; assay type: cell-based; conditions: 18 h, read-out: Minimum Inhibitory Concentration
Experimental: as §1

[7] = test system: Staphylococcus aureus (MEMC-89-4); test: In vitro antibacterial activity, agar dilution MIC; assay type: cell-based; conditions: 18 h, read-out: Minimum Inhibitory Concentration
Experimental: as §1

[8] = test system: Staphylococcus aureus (SMITH); test: In vitro antibacterial activity, agar dilution MIC; assay type: cell-based; conditions: 18 h, read-out: Minimum Inhibitory Concentration
Experimental: as §1

[9] = test system: Staphylococcus haemolyticus (ID-4061); test: In vitro antibacterial activity, agar dilution MIC; assay type: cell-based; conditions: 18 h, read-out: Minimum Inhibitory Concentration
Experimental: as §1

[10] = test system: Streptococcus pneumoniae (ID-4444); test: In vitro antibacterial activity, agar dilution MIC; assay type: cell-based; conditions: 18 h, read-out: Minimum Inhibitory Concentration
Experimental: as §1

[11] = Stability (conversion in neutral or basic solution; decomposition on drying); assay type: physicochemical; conditions: listed as α1
Experimental: The crude product is then separated into the α1, α2, β1 and β2 components and further purified by high performance liquid chromatography on a reverse-phase column equilibrated with 0.1% trifluoroacetic acid in water followed by slution with an acetonitrile gradient to 10%. Active fractions are pooled and freeze dried. Freeze dried fractions are dissolved in 0.01M hydrochloric acid, applied to a reverse phase column and eluted with an acetonitrile gradient to 10% resolves the two components α1 and α2. […] Beta is the quinone form of α1 or α2 having lost hydrogens from the oxygens connected to carbon10 and 13.
The freeze dried material is suspended in methanol and the insolubles removed by filtration. The soluble material is concentrated to dryness and the concentrate dissolved in 1% trifluoroacetic acid in water. Insolubles are removed by centrifugation. The soluble material is loaded onto a preparative reverse phase C18 column equilibrated with 0.1% trifluoroacetic acid in water. The column is eluted with an acetonitrile gradient to 10%. Active fractions containing the alpha component are pooled and freeze dried. Active fractions containing the beta component are adjusted to pH 8 with solid ammonium bicarbonate and extracted with methylene chloride. The beta component is stored in methylene chloride as drying leads to rapid decomposition. […]

## COc1c(C)c(O)c2c(c1O)C1COC3C4CC5C(N4)C(C2N2CCOC52)N13 (stereo not drawn) [31F508α1]
B. cereus (Bacto); with 5% sheep blood
  MIC: 1 µg/mL (≈ 2.58 µM)
B. cereus (Bacto); without sheep blood
  MIC: 0.5 µg/mL (≈ 1.29 µM)
CNS (4615); read-out: Minimum Inhibitory Concentration, CNS (4615), with 5% sheep blood
  MIC: 0.03 µg/mL (≈ 0.0774 µM)
CNS (4615); read-out: Minimum Inhibitory Concentration, CNS (4615), without sheep blood
  MIC: 0.015 µg/mL (≈ 0.0387 µM)
CNS (ID-3120); read-out: Minimum Inhibitory Concentration, CNS (ID-3120), with 5% sheep blood
  MIC: 0.03 µg/mL (≈ 0.0774 µM)
CNS (ID-3120); read-out: Minimum Inhibitory Concentration, CNS (ID-3120), without sheep blood
  MIC: 0.015 µg/mL (≈ 0.0387 µM)
CNS (ID-3276)
  MIC: 0.008 µg/mL (≈ 0.0206 µM)
CNS (ID-3941); read-out: Minimum Inhibitory Concentration, CNS (ID-3941), with 5% sheep blood
  MIC: 0.06 µg/mL (≈ 0.155 µM)
CNS (ID-3941); read-out: Minimum Inhibitory Concentration, CNS (ID-3941), without sheep blood
  MIC: 0.03 µg/mL (≈ 0.0774 µM)
E. Avium (ID-3953); with 5% sheep blood
  MIC: 0.25 µg/mL (≈ 0.645 µM)
E. Avium (ID-3953); without sheep blood
  MIC: 0.06 µg/mL (≈ 0.155 µM)
E. coli (ATCC 25922); Escherichia coli, ATCC25922, without sheep blood, read-out: Minimum Inhibitory Concentration
  MIC: 1 µg/mL (≈ 2.58 µM)
E. coli (ATCC 25922); with 5% sheep blood
  Minimum Inhibitory Concentration: 1.000 µg/mL
E. coli (J2175); with 5% sheep blood
  MIC: 2 µg/mL (≈ 5.16 µM)
E. coli (J2175); without sheep blood
  MIC: 1 µg/mL (≈ 2.58 µM)
E. coli (J2445); with 5% sheep blood
  MIC: 0.12 µg/mL (≈ 0.31 µM)
E. coli (J2445); without sheep blood
  MIC: 0.06 µg/mL (≈ 0.155 µM)
E. faecalis (12201); with 5% sheep blood
  MIC: 0.06 µg/mL (≈ 0.155 µM)
E. faecalis (12201); without sheep blood
  MIC: 0.03 µg/mL (≈ 0.0774 µM)
E. faecalis (ATCC 29212); with 5% sheep blood
  MIC: 0.12 µg/mL (≈ 0.31 µM)
E. faecalis (ATCC 29212); without sheep blood
  MIC: 0.06 µg/mL (≈ 0.155 µM)
E. faecalis (ID-1829); with 5% sheep blood
  MIC: 0.5 µg/mL (≈ 1.29 µM)
E. faecalis (ID-1829); without sheep blood
  MIC: 0.12 µg/mL (≈ 0.31 µM)
E. faecalis (ID-2131); with 5% sheep blood
  MIC: 0.25 µg/mL (≈ 0.645 µM)
E. faecalis (ID-2131); without sheep blood
  MIC: 0.12 µg/mL (≈ 0.31 µM)
E. faecalis (ID-4168); with 5% sheep blood
  MIC: 0.12 µg/mL (≈ 0.31 µM)
E. faecalis (ID-4168); without sheep blood
  MIC: 0.06 µg/mL (≈ 0.155 µM)
E. faecium (12202); with 5% sheep blood
  MIC: 0.25 µg/mL (≈ 0.645 µM)
E. faecium (12202); without sheep blood
  MIC: 0.03 µg/mL (≈ 0.0774 µM)
E. faecium (ID-3301); with 5% sheep blood
  MIC: 0.12 µg/mL (≈ 0.31 µM)
E. faecium (ID-3301); without sheep blood
  MIC: 0.06 µg/mL (≈ 0.155 µM)
E. faecium (ID-4133); Enterococcus faecium, without sheep blood, read-out: Minimum Inhibitory Concentration
  MIC: 0.002 µg/mL (≈ 0.00516 µM)
E. faecium (ID-4133); with 5% sheep blood
  Minimum Inhibitory Concentration: 0.002 µg/mL
M. morganii (VGH 84-11); with 5% sheep blood
  MIC: 2 µg/mL (≈ 5.16 µM)
M. morganii (VGH 84-11); without sheep blood
  MIC: 1 µg/mL (≈ 2.58 µM)
[1]; Pseudomonas aeruginosa, ATCC27853, without sheep blood, read-out: Minimum Inhibitory Concentration
  MIC: 2 µg/mL (≈ 5.16 µM)
[1]; with 5% sheep blood
  Minimum Inhibitory Concentration: 2.000 µg/mL
S. Pyogenes (ID-3187); with 5% sheep blood
  MIC: 0.004 µg/mL (≈ 0.0103 µM)
S. Pyogenes (ID-3187); without sheep blood
  MIC: 0.002 µg/mL (≈ 0.00516 µM)
S. agalactiae (ID-4079); 18 h, read-out: Minimum Inhibitory Concentration, S. acralactiae (ID-4079), without sheep blood
  MIC: 0.004 µg/mL (≈ 0.0103 µM)
S. agalactiae (ID-4079); S. agalactiae (ID-4079), with 5% sheep blood, 18 hours, read-out: Minimum Inhibitory Concentration
  MIC: 0.015 µg/mL (≈ 0.0387 µM)
S. lutea (ATCC 9341); Micrococcus luteus, ATCC9341, without sheep blood, read-out: Minimum Inhibitory Concentration
  MIC: 0.002 µg/mL (≈ 0.00516 µM)
S. lutea (ATCC 9341); with 5% sheep blood
  Minimum Inhibitory Concentration: 0.002 µg/mL
[2]; Staphylococcus aureus (ATCC 29213), with 5% sheep blood
  MIC: 0.12 µg/mL (≈ 0.31 µM)
[2]; Staphylococcus aureus (ATCC 29213-), without sheep blood
  MIC: 0.06 µg/mL (≈ 0.155 µM)
[3]; with 5% sheep blood
  MIC: 0.06 µg/mL (≈ 0.155 µM)
[3]; without sheep blood
  MIC: 0.03 µg/mL (≈ 0.0774 µM)
[4]; with 5% sheep blood
  MIC: 0.015 µg/mL (≈ 0.0387 µM)
[4]; without sheep blood
  MIC: 0.008 µg/mL (≈ 0.0206 µM)
[5]; with 5% sheep blood
  MIC: 0.06 µg/mL (≈ 0.155 µM)
[5]; without sheep blood
  MIC: 0.03 µg/mL (≈ 0.0774 µM)
[6]; with 5% sheep blood
  MIC: 0.12 µg/mL (≈ 0.31 µM)
[6]; without sheep blood
  MIC: 0.03 µg/mL (≈ 0.0774 µM)
[7]; with 5% sheep blood
  MIC: 0.06 µg/mL (≈ 0.155 µM)
[7]; without sheep blood
  MIC: 0.03 µg/mL (≈ 0.0774 µM)
[8]; with 5% sheep blood
  MIC: 0.008 µg/mL (≈ 0.0206 µM)
[8]; without sheep blood
  MIC: 0.004 µg/mL (≈ 0.0103 µM)
[9]; with 5% sheep blood
  MIC: 0.015 µg/mL (≈ 0.0387 µM)
[9]; without sheep blood
  MIC: 0.008 µg/mL (≈ 0.0206 µM)
[10]; with 5% sheep blood
  MIC: 0.008 µg/mL (≈ 0.0206 µM)
[10]; without sheep blood
  MIC: 0.002 µg/mL (≈ 0.00516 µM)
[11]
  Conversion to the beta (quinone) form: converts to the beta form
